# Laboratory results reported in US20200037609A1, “HERBICIDAL COMPOSITIONS AND METHODS OF USE THEREOF” (The Regents of the University of California, priority 2017, published 2020).
# Where two headings read alike, the source gives them in different places.
# Legend:
# [1] = test system: S. cerevisiae ΔILV3 expressing fDHAD; assay: Growth inhibition of S. cerevisiae ΔILV3 in ILV dropout media; type: cell-based, Saccharomyces cerevisiae
# Procedure: Growth inhibition assay of S. cerevisiae on plates or in the tubes. S. cerevisiae was grown in isoleucine, leucine and valine (ILV) dropout media (20 g/L glucose, 0.67 g/L Difco™ Yeast Nitrogen Base w/o amino acids, 18 mg/L adenine, arginine 76 mg/L, asparagine 76 mg/L, aspartic acid 76 mg/L, glutamic acid 76 mg/L, histidine 76 mg/L, lysine 76 mg/L, methionine 76 mg/L, phenylalanine 76 mg/L, serine 76 mg/L, threonine 76 mg/L, tryptophan 76 mg/L, tyrosine 76 mg/L) to test growth inhibition of AA on S. cerevisiae. S. cerevisiae was incubated at 28° C. until OD600 of the control strain without AA treatment reached about 0.8. The ratio of yeast OD600 in media with AA treatment to yeast OD600 in media without AA was calculated as the percentage of growth inhibition. The inhibition curve was plotted as percentage of inhibition versus AA concentrations. […] The growth curves of TY05, TY06 and TY07 were also plotted (FIG. 29A-29D). The OD600 was recorded for every 20 minutes over a total of 50 h. The inhibition percentage can be calculated by following equation: […]
# Saccharomyces cerevisiae = assay: Yeast growth inhibition assay on plates; type: cell-based; details: 250 μM aspterric acid
# Procedure: Saccharomyces cerevisiae was plated onto dropout media that lacked isoleucine, leucine, and valine, either with or without 250 μM aspterric acid. Saccharomyces cerevisiae was also plated onto rich media that contained all amino acids along with 250 μM aspterric acid. Plates were incubated at 30° C.
# [2] = test system: soil-grown Arabidopsis thaliana Col-0 ecotype plants; assay: Herbicidal spray experiments with 1 mM aspterric acid in solvent formulations; type: in vivo
# Procedure: Aspterric acid was dissolved in the following solvent formulations at a final concentration of 1 mM: (1) 0.5% silwet L-77 and 1% DMSO (floral dip formulation), (2) 2% EtOH, 1% corn oil, and 0.1% tween 80, and (3) 2% EtOH and 0.05% Finale (Finale formulation, contains a final concentration of […]).
# For spray treatments with aspterric acid in the various formulations described above, Arabidopsis thaliana Col-0 ecotype plants were grown in soil under long day conditions (16 hours of light followed by 8 hours of dark per day) at 23° C. using cool-white fluorescence bulbs as the light source. Ten-day old seedlings were sprayed with 1 mM aspterric acid dissolved in formulation (1), (2), or (3) as described above. Spray application with the various respective formulations was repeated every 2 days.
# [3] = test system: astD transgene-expressing A. thaliana; assay: AA resistance of astD transgenic plants (media and spray); type: in vivo, Arabidopsis thaliana
# Procedure: Growth inhibition assay of plants on plates or in the tubes. MS (2.16 g/L Murashige and Skoog basal medium, 8 g/L sucrose, 8 g/L agar) media was used to test the growth inhibition of AA on A. thaliana, Solanum lycopersicum, and Zea mays. A. thaliana, S. lycopersicum, G. max and Z. mays were grown under long day condition (16/8 h light/dark) using cool-white fluorescence bulbs as the light resource at 23° C. AA was dissolved in ethanol and added to the media before inoculating strains or growing plants. The media of control treatment contains the same amount of ethanol, but without AA.
# Plant growth inhibition assay by spraying. AA was firstly dissolved in ethanol and then added to solvent (0.06 g/L Finale® Bayer Inc.+20 g/L EtOH). The control plants were treated with solvent containing ethanol only. A. thaliana that are resistant to glufosinate (containing the bar gene) were grown under long day conditions (16/8 h light/dark) using cool-white fluorescence bulbs as the light resource at 23° C. Spraying treatments began when the seeds germinated, and was repeated once every two days with approximately 0.4 mL AA solution per time per pot.
# The coding sequence of AstD was codon optimized for A. thaliana. A chloroplast localization signal (CLS) of 35-amino acid residues derived from the N-terminal of A. thaliana DHAD (SEQ ID NO: 19) was fused to N-terminus of the codon optimized AstD. […]
# [4] = test system: pollen development in Arabidopsis thaliana; details: literature, cited from earlier work
structure (smiles),measurement,setting,value
CC(C)=C1CC[C@]23CO[C@H](C2)[C@@](O)(C(=O)O)CC[C@@H]13 [aspterric acid],IC50,"[1]; Saccharomyces cerevisiae, ILV dropout media, read-out: IC50 of growth inhibition, yeast expressing fDHAD",~2 µM
same,sensitivity to AA of yeast expressing fDHAD compared to yeast expressing AstD,[1]; ratio of IC50,approximately 100 times
same,"growth of S. cerevisiae on media lacking isoleucine, leucine and valine",Saccharomyces cerevisiae,inhibited the growth
same,growth of S. cerevisiae on rich media,Saccharomyces cerevisiae; all amino acids present,grew normally
same,"growth after spray, formulation (1)","[2]; 1 mM in 0.5% silwet L-77 and 1% DMSO, every 2 days, 18 days after first spray",showed growth inhibition
same,"growth after spray, formulation (3)","[2]; 1 mM in 2% EtOH and 0.05% Finale, glufosinate-resistant plants, 18 days after first spray",significant growth inhibition
same,"growth after spray, formulation (2)","[2]; 1 mM in 2% EtOH, 1% corn oil, 0.1% tween 80, every 2 days, 17 days after first spray",showed growth inhibition
same,growth of astD transgenic plants on media,[3]; 100 μM AA,relatively unaffected
same,growth of T2 astD transgenic plants after spray,[3]; 250 μM AA + glufosinate ammonium,no observable growth defects
same,inhibition of pollen development in A. thaliana (previously reported),[4],inhibit pollen development
same,inhibition of pollen development in A. thaliana (previously reported),[4]; listed as AA,inhibitory activity towards pollen development
